Measurements taken from patent US11090308B2, “Methods of treating liver disorders or lipid disorders with a THR-beta agonist” (Madrigal Pharmaceuticals, Inc., priority 2016, dated 2021).
Where two headings read alike, the source gives them in different places.

Assays:
MRP2 = MRP2 (Homo sapiens, UniProt Q92887); assay: In vitro drug transporter assay, MRP2; format: in vitro ADME
in vitro = in vitro ADME, all species; settings: plasma
From the text: (§1) The following studies have been conducted: (a) in vitro drug protein binding, transporter (organic anion transporting polypeptide [OATP], P-glycoprotein [P-gp], breast cancer-related protein [BCRP], and multiple drug resistance protein 1 [MDR1]), and cytochrome P-450 enzyme assays to investigate absorption, distribution, and excretion; (b) in vivo MGL-3196 rat and dog oral PK and bioavailability studies; (c) in vivo ^14C-MGL-3196 rat and dog oral pharmacokinetics, absorption, excretion, and tissue distribution by quantitative whole-body autoradiography (QWBA) studies; and (d) liver disposition of MGL-3196 using an in vitro sandwiched hepatocyte model system (B-CLEAR® technology) in dog (SCDH) and human (SCHH) hepatocytes.

BCRP = target: T1, BCRP (Homo sapiens, UniProt Q9UNQ0); assay: In vitro drug transporter assay, BCRP; format: in vitro ADME
T1 sequence (Q9UNQ0 1-655): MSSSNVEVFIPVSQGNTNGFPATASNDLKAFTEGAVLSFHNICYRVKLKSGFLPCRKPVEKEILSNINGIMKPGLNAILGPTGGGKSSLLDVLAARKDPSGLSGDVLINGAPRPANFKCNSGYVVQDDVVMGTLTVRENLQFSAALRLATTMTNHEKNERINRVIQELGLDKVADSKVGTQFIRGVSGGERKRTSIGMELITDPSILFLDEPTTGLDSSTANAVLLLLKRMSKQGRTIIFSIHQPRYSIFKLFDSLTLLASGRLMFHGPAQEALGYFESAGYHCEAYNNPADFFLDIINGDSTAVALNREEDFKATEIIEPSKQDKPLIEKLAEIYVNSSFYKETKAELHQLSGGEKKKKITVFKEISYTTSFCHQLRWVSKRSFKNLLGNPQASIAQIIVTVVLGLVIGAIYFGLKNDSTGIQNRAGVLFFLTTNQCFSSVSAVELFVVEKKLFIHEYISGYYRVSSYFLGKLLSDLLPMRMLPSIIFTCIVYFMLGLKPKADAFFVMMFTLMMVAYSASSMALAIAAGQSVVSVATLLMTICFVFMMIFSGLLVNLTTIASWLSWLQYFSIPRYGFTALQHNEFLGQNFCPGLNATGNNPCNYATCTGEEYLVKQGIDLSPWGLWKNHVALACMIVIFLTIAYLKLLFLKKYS
From the text: as §1

OCT2 = target: T2, OCT2 (Homo sapiens, UniProt O15244); assay: In vitro drug transporter assay, OCT2; format: in vitro ADME
T2 sequence (O15244 1-555): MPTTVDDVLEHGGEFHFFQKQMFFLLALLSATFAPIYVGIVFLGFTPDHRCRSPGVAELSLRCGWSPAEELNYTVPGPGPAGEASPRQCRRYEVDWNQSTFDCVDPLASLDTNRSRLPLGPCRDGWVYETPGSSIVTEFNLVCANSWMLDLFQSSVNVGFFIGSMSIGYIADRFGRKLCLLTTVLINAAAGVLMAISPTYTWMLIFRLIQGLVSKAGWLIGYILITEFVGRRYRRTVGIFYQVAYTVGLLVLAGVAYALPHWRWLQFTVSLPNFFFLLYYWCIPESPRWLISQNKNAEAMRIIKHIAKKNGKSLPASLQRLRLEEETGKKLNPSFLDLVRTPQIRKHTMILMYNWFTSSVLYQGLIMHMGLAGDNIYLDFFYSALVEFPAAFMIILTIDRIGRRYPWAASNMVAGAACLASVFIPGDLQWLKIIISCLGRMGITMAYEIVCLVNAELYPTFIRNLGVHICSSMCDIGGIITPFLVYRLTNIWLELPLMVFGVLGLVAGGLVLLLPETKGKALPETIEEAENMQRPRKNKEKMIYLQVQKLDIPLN

[1] = Dog liver, bile, plasma distribution; format: in vivo; settings: for concentration at 4 h: Beagle, po; for concentration at 4 h / Concentration in Bile: 4 hours after single daily 100 mg/kg oral doses for four days
From the text: Tables 2A-2B show ^14C-MGL-3196 dog ADME study design.

[2] = Dog oral PK and bioavailability studies; format: in vivo
From the text: as §1
Rat & Dog PK/Bioavailability Studies were also performed.

MDR1 (P-gp) = MDR1 (P-gp) (Homo sapiens, UniProt P08183); assay: In vitro drug transporter assay, MDR1 (P-gp); format: in vitro ADME
From the text: as §1

OAT3 = target: T3, OAT3 (Homo sapiens, UniProt Q8TCC7); assay: In vitro drug transporter assay, OAT3; format: in vitro ADME; settings: read-out: Inhibitor of: OAT3, IC50
T3 sequence (Q8TCC7 1-542): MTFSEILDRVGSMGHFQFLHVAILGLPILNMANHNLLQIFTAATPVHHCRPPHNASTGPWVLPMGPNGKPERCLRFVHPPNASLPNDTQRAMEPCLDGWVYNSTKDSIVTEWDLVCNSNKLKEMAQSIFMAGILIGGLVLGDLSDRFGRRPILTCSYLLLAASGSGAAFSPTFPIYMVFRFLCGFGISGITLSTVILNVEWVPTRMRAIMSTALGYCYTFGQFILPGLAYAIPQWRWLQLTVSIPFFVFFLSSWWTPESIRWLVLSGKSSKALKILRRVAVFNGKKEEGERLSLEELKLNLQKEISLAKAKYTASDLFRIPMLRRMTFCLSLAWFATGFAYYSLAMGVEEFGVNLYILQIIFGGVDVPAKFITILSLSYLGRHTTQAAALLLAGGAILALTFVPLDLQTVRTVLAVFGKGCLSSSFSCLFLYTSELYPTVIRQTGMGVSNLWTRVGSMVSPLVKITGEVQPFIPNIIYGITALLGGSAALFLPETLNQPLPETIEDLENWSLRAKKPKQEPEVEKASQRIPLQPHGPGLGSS

Sequence of MDR1 (P-gp) (P08183 whole entry, species assumed): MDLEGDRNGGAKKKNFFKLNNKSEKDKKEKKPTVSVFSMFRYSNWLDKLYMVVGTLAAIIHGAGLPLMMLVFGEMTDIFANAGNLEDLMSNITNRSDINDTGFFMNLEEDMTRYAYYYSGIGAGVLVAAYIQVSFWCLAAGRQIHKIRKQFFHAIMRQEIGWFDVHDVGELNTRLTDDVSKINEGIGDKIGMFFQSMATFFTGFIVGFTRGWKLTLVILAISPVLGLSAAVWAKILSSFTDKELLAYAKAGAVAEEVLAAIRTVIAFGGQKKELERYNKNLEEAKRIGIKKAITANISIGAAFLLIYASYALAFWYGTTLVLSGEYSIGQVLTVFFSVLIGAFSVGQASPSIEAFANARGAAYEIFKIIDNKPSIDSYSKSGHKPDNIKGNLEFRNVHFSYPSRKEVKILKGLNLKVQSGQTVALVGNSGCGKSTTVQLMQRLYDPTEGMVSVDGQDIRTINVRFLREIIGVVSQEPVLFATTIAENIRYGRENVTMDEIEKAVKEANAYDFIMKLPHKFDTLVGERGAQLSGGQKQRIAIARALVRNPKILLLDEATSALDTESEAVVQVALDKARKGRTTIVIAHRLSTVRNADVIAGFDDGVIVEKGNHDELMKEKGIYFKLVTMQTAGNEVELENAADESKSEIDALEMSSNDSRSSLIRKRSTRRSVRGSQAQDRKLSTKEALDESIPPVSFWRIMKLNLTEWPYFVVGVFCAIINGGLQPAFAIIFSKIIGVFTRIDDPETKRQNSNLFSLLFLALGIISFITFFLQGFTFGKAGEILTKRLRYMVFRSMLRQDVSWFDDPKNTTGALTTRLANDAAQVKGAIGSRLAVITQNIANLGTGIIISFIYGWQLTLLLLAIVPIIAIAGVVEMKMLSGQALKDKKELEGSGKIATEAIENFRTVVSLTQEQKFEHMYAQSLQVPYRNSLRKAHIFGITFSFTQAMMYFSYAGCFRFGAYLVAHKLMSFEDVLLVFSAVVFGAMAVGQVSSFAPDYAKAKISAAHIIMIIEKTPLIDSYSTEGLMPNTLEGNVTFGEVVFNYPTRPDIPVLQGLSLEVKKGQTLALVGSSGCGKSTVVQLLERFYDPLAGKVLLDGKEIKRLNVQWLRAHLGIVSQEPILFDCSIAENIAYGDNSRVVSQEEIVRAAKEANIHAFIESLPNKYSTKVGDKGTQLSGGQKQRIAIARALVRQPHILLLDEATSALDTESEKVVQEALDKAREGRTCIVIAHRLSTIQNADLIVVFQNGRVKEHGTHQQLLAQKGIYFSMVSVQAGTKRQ
Sequence of MRP2 (Q92887 whole entry, species assumed): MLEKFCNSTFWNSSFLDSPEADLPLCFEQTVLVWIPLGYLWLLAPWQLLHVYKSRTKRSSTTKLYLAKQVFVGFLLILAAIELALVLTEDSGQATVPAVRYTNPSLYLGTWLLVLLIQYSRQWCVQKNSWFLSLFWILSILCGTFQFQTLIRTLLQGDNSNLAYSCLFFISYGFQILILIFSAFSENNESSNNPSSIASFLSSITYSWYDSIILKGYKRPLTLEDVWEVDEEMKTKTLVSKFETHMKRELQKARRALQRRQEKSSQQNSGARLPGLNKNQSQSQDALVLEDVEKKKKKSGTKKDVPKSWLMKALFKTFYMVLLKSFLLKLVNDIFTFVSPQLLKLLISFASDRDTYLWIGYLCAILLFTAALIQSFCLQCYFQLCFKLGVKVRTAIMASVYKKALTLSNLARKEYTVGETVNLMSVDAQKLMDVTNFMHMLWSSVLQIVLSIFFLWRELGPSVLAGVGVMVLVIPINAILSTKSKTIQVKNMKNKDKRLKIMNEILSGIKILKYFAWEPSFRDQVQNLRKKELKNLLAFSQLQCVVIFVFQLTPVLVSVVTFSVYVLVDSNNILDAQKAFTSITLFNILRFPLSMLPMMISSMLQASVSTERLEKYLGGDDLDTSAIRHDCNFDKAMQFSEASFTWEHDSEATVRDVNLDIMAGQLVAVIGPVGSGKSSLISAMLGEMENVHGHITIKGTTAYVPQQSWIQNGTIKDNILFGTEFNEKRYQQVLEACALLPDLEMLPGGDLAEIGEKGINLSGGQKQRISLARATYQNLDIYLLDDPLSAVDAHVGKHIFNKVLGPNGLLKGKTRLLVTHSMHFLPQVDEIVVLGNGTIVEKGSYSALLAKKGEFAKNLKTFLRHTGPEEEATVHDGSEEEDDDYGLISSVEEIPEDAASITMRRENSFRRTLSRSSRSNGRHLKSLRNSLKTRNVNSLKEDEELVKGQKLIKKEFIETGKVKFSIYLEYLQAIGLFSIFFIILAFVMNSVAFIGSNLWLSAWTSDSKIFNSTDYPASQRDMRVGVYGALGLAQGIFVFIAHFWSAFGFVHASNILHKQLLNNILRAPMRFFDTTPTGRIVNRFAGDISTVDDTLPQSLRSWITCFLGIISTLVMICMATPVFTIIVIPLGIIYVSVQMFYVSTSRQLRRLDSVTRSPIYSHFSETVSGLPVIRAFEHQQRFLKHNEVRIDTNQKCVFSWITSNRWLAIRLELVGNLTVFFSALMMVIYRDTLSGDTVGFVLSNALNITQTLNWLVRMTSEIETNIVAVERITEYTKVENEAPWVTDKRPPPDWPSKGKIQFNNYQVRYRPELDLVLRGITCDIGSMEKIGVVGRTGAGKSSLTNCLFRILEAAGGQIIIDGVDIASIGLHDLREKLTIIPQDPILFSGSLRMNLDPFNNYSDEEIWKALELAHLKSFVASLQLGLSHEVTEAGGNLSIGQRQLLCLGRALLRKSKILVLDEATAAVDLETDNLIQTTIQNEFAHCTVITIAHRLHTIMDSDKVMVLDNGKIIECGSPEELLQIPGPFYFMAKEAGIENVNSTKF

For `CC(C)c1cc(Oc2c(Cl)cc(-n3nc(C#N)c(=O)[nH]c3=O)cc2Cl)n[nH]c1=O` [MGL-3196, 2-(3,5-dichloro-4-((5-isopropyl-6-oxo-1,6-dihydropyridazin-3-yl)oxy)phenyl)-3,5-dioxo-2,3,4,5-tetrahydro-1,2,4-triazine-6-carbonitrile], the “Inhibitor of: MRP2” value (MRP2) was “not an inhibitor”, the “Substrate for: MRP2” value (MRP2) was “not a substrate” and the fraction unbound (in vitro) was under 0.01. For the same compound, the “Substrate for: BCRP” value (BCRP) was “BCRP”, the “Inhibitor of: BCRP, % inhibition” value (BCRP; @ 25 uM genistein) was 3-sulfate; 24% @ 25 uM genistein) and the IC50 (BCRP; for Estrone-3-sulfate, read-out: Inhibitor of: BCRP, IC50) was 27.4 µM. The “Inhibitor of: OCT2” value (OCT2) was “not an inhibitor”, the concentration at 4 h ([1]; dog, hepatic portal vein plasma, 100 mg/kg, Dog 1, read-out: Concentration in Hepatic Portal Vein Plasma) was 18.8 µg/mL and the concentration at 4 h ([1]; dog, hepatic portal vein plasma, 100 mg/kg, Dog 2, read-out: Concentration in Hepatic Portal Vein Plasma) was 86.6 µg/mL. The concentration at 4 h ([1]; dog, hepatic portal vein plasma, 100 mg/kg, Dog 3, read-out: Concentration in Hepatic Portal Vein Plasma) was 98.6 µg/mL, the concentration at 4 h ([1]; dog, hepatic portal vein plasma, 100 mg/kg, Mean, read-out: Concentration in Hepatic Portal Vein Plasma) was 68 µg/mL and the concentration at 4 h ([1]; dog, liver, 100 mg/kg, Dog 1, read-out: Concentration in Liver) was 129000 ng/g. For the same compound, the concentration at 4 h ([1]; dog, liver, 100 mg/kg, Dog 2, read-out: Concentration in Liver) was 319000 ng/g, the concentration at 4 h ([1]; dog, liver, 100 mg/kg, Dog 3, read-out: Concentration in Liver) was 210000 ng/g and the concentration at 4 h ([1]; dog, liver, 100 mg/kg, Mean, read-out: Concentration in Liver) was 219000 ng/g. It also gave a concentration at 4 h ([1]; dog, systemic plasma, 100 mg/kg, Dog 1, read-out: Concentration in Systemic Plasma) of 16.7 µg/mL, a concentration at 4 h ([1]; dog, systemic plasma, 100 mg/kg, Dog 2, read-out: Concentration in Systemic Plasma) of 81.5 µg/mL and a concentration at 4 h ([1]; dog, systemic plasma, 100 mg/kg, Dog 3, read-out: Concentration in Systemic Plasma) of 115 µg/mL. For the same compound, the concentration at 4 h ([1]; dog, systemic plasma, 100 mg/kg, Mean, read-out: Concentration in Systemic Plasma) was 71.1 µg/mL, the “Concentration in Bile” value ([1]; Dog 1) was 26,400,000 ng/mL and the “Concentration in Bile” value ([1]; Dog 2) was 10,400,000 ng/mL. The “Concentration in Bile” value ([1]; Dog 3) was 15,500,000 ng/mL, the “Concentration in Bile” value ([1]; Mean) was 17,400,000 ng/mL and the Kp at 4 h ([1]; bile versus plasma, oral, 100 mg/kg, dog, 4 h post-dose, read-out: concentration in bile higher than in plasma) was about 250. The “concentration in bile higher than in liver” value ([1]; dog, 4 h post-dose) was about 80 ×, the Kp at 4 h ([1]; liver versus plasma, oral, dog, 4 h, 100 mg/kg, read-out: liver to plasma ratio) was 3.1 and the Kp at 24 h ([1]; liver versus plasma, oral, dog, 24 h, 100 mg/kg, read-out: liver to plasma ratio) was 267. The bioavailability ([2]; dog, plasma, po) was 11 to 135%, the half-life ([2]; dog, plasma, dogs, oral dosing, read-out: mean elimination half-life) was 3 to 5.5 h and the “time of maximum plasma concentrations” value ([2]; dogs, oral dosing) was 1 to 8 h. For the same compound, the “Inhibitor of: MDR1” value (MDR1 (P-gp)) was “not an inhibitor”, the “Substrate for: MDR1 (P-gp)” value (MDR1 (P-gp)) was “weak substrate” and the IC50 (OAT3) was 4.5 µM.
